One data set relates to MDA-MB-231/ATCC. Kind of data set: NCI-60 SRB growth inhibition, one-dose and five-dose. The class given is cell-based. To be noted: Homo sapiens.
Another data set deals with MOLT-4. The data set is described as above. The data set is classed as cell-based. The following applies: Homo sapiens; for inhibition at 10 µM: MOLT-4, read-out: percent growth inhibition.
The subject of data set [1] is Ovarian cancer cell lines. Kind of data set: NCI-60 SRB growth inhibition, subpanel. To be noted: Homo sapiens, read-out: GI50 MG-MID. The data set is classed as cell-based, human.
The test system of another data set is NCI-H522. Nature of the data set: NCI-60 SRB growth inhibition, one-dose and five-dose. The class given is cell-based. To be noted: Homo sapiens; for inhibition at 10 µM: NCI-H522, read-out: percent growth inhibition.
The next data set relates to SF-539. Described as above. The class given is cell-based. The following applies: Homo sapiens; for inhibition at 10 µM: SF-539, read-out: percent growth inhibition.
The test system of the next data set is EKVX. The description is as above. The data set is classed as cell-based. To be noted: Homo sapiens; for inhibition at 10 µM: read-out: percent growth inhibition.
In the next data set the test system is SK-OV-3. The description is as above. The class given is cell-based. To be noted: Homo sapiens; for inhibition at 10 µM: SK-OV-3, read-out: percent growth inhibition.
For the next data set, the system named is UACC-257. Described as above. The following applies: Homo sapiens; for inhibition at 10 µM: UACC-257, read-out: percent growth inhibition. The class given is cell-based.
For a further data set, the system named is NCI-H23. Described as above. The data set is classed as cell-based. The following applies: Homo sapiens; for inhibition at 10 µM: NCI-H23, read-out: percent growth inhibition.
Another data set has as its system SK-MEL-2. The description is as above. The class given is cell-based. The following applies: Homo sapiens; for inhibition at 10 µM: SK-MEL-2, read-out: percent growth inhibition.
A further data set relates to RXF 393. The data set is described as above. The class given is cell-based. To be noted: Homo sapiens; for inhibition at 10 µM: RXF 393, read-out: percent growth inhibition.
The next data set deals with Melanoma cell lines. Kind of data set: NCI-60 SRB growth inhibition, subpanel. The data set is classed as cell-based, human. To be noted: Homo sapiens, read-out: GI50 MG-MID.
The next data set deals with Colon cancer cell lines. Kind of data set: NCI-60 SRB growth inhibition, subpanel. The class given is cell-based, human. To be noted: Homo sapiens, read-out: GI50 MG-MID.
Another data set has as its system NSCLC cell lines. Nature of the data set: NCI-60 SRB growth inhibition, subpanel. The class given is cell-based, human. To be noted: Homo sapiens, read-out: GI50 MG-MID.
Another data set deals with K-562. Kind of data set: NCI-60 SRB growth inhibition, one-dose and five-dose. The class given is cell-based. To be noted: Homo sapiens; for inhibition at 10 µM: K562, read-out: percent growth inhibition.
For the next data set, the system named is Renal cancer cell lines. Nature of the data set: NCI-60 SRB growth inhibition, subpanel. The class given is cell-based, human. To be noted: Homo sapiens, read-out: GI50 MG-MID.
The test system of another data set is PC-3. Kind of data set: NCI-60 SRB growth inhibition, one-dose and five-dose. The data set is classed as cell-based. The following applies: Homo sapiens; for inhibition at 10 µM: PC-3, read-out: percent growth inhibition.
The test system of data set [2] is WI-38 normal human fibroblast cells. Kind of data set: Cytotoxicity towards normal fibroblasts, safety index. The data set is classed as cell-based. To be noted: WI-38 versus cancer cell lines.
Experiment in data set [3]: as above
The following applies: human, WI-38 normal fibroblast cells. The class given is cell-based, human.

The next data set has as its system HCC-2998. Nature of the data set: NCI-60 SRB growth inhibition, one-dose and five-dose. The class given is cell-based. To be noted: Homo sapiens; for inhibition at 10 µM: HCC 2998, read-out: percent growth inhibition.
The test system of a further data set is NCI-H322M. Described as above. To be noted: Homo sapiens; for inhibition at 10 µM: read-out: percent growth inhibition. The data set is classed as cell-based.
In a further data set the test system is LOX IMVI. The description is as above. The class given is cell-based. To be noted: Homo sapiens; for inhibition at 10 µM: read-out: percent growth inhibition.
For a further data set, the system named is SF-295. The description is as above. The data set is classed as cell-based. To be noted: Homo sapiens; for inhibition at 10 µM: SF-295, read-out: percent growth inhibition.
Another data set deals with CNS cancer cell lines. Kind of data set: NCI-60 SRB growth inhibition, subpanel. The class given is cell-based, human. To be noted: Homo sapiens, read-out: GI50 MG-MID.
A further data set deals with UO-31. Nature of the data set: NCI-60 SRB growth inhibition, one-dose and five-dose. To be noted: Homo sapiens. The class given is cell-based.
The next data set has as its target Human VEGFR-2 (Homo sapiens, UniProt P35968). Kind of data set: VEGFR-2 inhibition assay. The data set is classed as biochemical.
Data set [4] deals with Prostate cancer cell lines. Kind of data set: NCI-60 SRB growth inhibition, subpanel. The class given is cell-based, human. To be noted: Homo sapiens, read-out: GI50 MG-MID.
The subject of the next data set is HOP-62. Kind of data set: NCI-60 SRB growth inhibition, one-dose and five-dose. The class given is cell-based. The following applies: Homo sapiens; for inhibition at 10 µM: HOP-62, read-out: percent growth inhibition.
The subject of a further data set is Breast cancer cell lines. Nature of the data set: NCI-60 SRB growth inhibition, subpanel. The data set is classed as cell-based, human. To be noted: Homo sapiens, read-out: GI50 MG-MID.
The next data set relates to Leukaemia cell lines. Nature of the data set: NCI-60 SRB growth inhibition, subpanel. The data set is classed as cell-based, human. To be noted: Homo sapiens, read-out: GI50 MG-MID.
The test system of another data set is SK-MEL-28. Nature of the data set: NCI-60 SRB growth inhibition, one-dose and five-dose. The data set is classed as cell-based. To be noted: Homo sapiens; for inhibition at 10 µM: SK-MEL-28, read-out: percent growth inhibition.

Some results are limits rather than exact numbers.

Sequence of Human VEGFR-2 (P35968 20-1356): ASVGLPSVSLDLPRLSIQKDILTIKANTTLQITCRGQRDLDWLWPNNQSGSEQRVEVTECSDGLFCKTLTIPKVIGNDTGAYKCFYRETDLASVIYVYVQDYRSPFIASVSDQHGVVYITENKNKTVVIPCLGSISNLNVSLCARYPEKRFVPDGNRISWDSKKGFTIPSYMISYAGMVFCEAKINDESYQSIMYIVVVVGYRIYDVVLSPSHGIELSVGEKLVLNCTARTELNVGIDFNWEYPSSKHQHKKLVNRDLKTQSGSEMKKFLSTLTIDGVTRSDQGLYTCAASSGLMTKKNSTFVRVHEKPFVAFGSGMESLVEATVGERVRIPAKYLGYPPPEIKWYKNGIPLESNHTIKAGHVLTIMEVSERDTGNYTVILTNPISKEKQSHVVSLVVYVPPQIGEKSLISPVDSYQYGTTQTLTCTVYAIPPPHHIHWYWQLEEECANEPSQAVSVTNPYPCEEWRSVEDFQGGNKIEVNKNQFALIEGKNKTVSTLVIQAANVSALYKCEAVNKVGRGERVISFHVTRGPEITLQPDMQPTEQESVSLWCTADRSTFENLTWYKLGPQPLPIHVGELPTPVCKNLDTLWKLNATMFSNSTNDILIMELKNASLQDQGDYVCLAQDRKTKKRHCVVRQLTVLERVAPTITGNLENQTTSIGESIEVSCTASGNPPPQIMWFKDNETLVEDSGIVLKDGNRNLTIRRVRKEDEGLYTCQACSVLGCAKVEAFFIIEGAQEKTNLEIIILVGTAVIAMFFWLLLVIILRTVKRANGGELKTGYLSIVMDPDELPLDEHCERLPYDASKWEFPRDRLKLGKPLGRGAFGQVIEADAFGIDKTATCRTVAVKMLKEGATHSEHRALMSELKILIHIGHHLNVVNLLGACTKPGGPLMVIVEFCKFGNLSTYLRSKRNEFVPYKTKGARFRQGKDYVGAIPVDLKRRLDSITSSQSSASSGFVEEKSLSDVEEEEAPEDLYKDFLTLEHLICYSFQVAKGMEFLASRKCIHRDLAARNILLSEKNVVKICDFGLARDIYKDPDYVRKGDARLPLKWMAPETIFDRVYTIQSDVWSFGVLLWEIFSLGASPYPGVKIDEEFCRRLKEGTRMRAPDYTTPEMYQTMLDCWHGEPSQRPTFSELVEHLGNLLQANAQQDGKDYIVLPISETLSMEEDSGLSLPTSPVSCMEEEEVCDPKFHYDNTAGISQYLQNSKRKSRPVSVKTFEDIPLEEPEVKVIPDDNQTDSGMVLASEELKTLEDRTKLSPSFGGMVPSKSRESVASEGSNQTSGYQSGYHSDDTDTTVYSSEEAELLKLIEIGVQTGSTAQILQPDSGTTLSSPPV

The GI50 is the concentration at which growth is held to half of that of the control. Usually inhibition stands for the relative decrease from the control value, in per cent. The IC50 is the concentration at which inhibition is half-maximal. As to `CC(=O)Nc1ccc(/C=C/C(=O)c2cccc(NCc3ccc(C)cc3)c2)cc1` [Compound 5f, (E)-N-(4–(3-(3-((4-methylbenzyl)amino)phenyl)-3-oxoprop-1-en-1-yl)phenyl)acetamide], the GI50 is 3.7 µM in the data set with MDA-MB-231/ATCC (MDA-MB-231); 2.69 µM in the data set on MOLT-4 (MOLT-4); 10.5 µM in data set [1]; 11 µM in the data set on NCI-H522 (NCI-H522); 9.33 µM with SF-539 (SF-539); 12.6 µM in the data set on EKVX. The concentration for 50% growth inhibition (GI50) worked out at 25.8 µM with SK-OV-3 (SK-OV-3); 14.2 µM with UACC-257 (UACC-257); 10.4 µM with NCI-H23 (NCI-H23); 11.5 µM in the data set on SK-MEL-2 (SK-MEL-2); 10.9 µM in the data set with RXF 393 (RXF 393); 10.5 µM in the data set on Melanoma cell lines. In addition, the 50% growth inhibitory concentration (GI50) in the data set on Colon cancer cell lines is 7.86 µM; with NSCLC cell lines it was 13.4 µM; in the data set with K-562 (K562), 3.04 µM; with Renal cancer cell lines, 11.4 µM; in the data set on PC-3 (PC-3), 12.7 µM; in the data set on HCC-2998 (HCC 2998), 13.9 µM. Also, the concentration for 50% growth inhibition (GI50) was 15.1 µM with NCI-H322M; 2.97 µM with LOX IMVI; 15.7 µM in the data set on SF-295 (SF-295); 9.73 µM in the data set with CNS cancer cell lines; 6.78 µM in the data set with UO-31 (UO-31); 10.1 µM in data set [4]. For the same compound, the GI50 was 13.9 µM in the data set on HOP-62 (HOP-62), 7.03 µM in the data set with Breast cancer cell lines, 2.73 µM with Leukaemia cell lines and 15.2 µM with SK-MEL-28 (SK-MEL-28). Also, the inhibition at 10 µM stood at 89.4% in the data set with MDA-MB-231/ATCC (MDA-MB-231, read-out: percent growth inhibition); 62% in the data set on MOLT-4; 106% in the data set with NCI-H522; 153% with SF-539; 20.9% with EKVX; 31.6% in the data set with SK-OV-3. For the same compound, the inhibition at 10 µM in the data set with UACC-257 turned out to be 15.7%; in the data set with NCI-H23 it was 26.2%; in the data set with SK-MEL-2, 16.5%; with RXF 393, 32.9%; with K-562, 64.2%; in the data set on PC-3, 67.2%. Moreover, the inhibition at 10 µM in the data set on HCC-2998 is 15.2%; in the data set on NCI-H322M it was 22.5%; with LOX IMVI, 157%; with SF-295 it was 27.7%; in the data set with UO-31 (UO-31, read-out: percent growth inhibition), 50.2%; in the data set on HOP-62, 13.9%. For the same compound, the inhibition at 10 µM with SK-MEL-28 turned out to be 25%. Further, the Safety index in [2] is on record as >1. In data set [3], the GI50 at 48 h was > 100 µM. At Human VEGFR-2, the IC50 was found to be 0.89 ± 0.009 µM.
As to `CC(=O)Nc1ccc(CNc2cccc(C(=O)/C=C/c3c[nH]cn3)c2)cc1` [Compound 5l, (E)-N-(4-(((3–(3-(1H-imidazol-4-yl)acryloyl)phenyl)amino)methyl)phenyl)acetamide], the inhibition at 10 µM with MOLT-4 is 40.3%; with NCI-H522 it was 64.2%; in the data set on SF-539, 14.1%; with EKVX, 24.8%; in the data set on SK-OV-3 it was -9.94%; in the data set with UACC-257, 19.3%. In addition, the inhibition at 10 µM in the data set with NCI-H23 was 11.5%; in the data set on SK-MEL-2, 12.8%; with RXF 393 it was 37.7%; in the data set on K-562 it was 80.8%; in the data set on PC-3, 7.64%; with HCC-2998 it was -2.31%. In addition, the inhibition at 10 µM in the data set with NCI-H322M is 12.8%; with LOX IMVI, 45.3%; in the data set on SF-295 it was -1.21%; in the data set with HOP-62, 5.06%; with SK-MEL-28, 13.4%.
Take `O=C(/C=C/c1c[nH]cn1)c1cccc(NCc2ccc3oc(=O)ccc3c2)c1` [Compound 5n, (E)-6-(((3–(3-(1H-imidazol-4-yl)acryloyl)phenyl)amino)methyl)-2H-chromen-2-one]: the inhibition at 10 µM in the data set with MOLT-4 was 61.1%; in the data set on NCI-H522 it was 138%; with SF-539, 14.8%; with EKVX, 45.6%; in the data set with SK-OV-3 it was -4.46%; with UACC-257, 43.6%. The inhibition at 10 µM with NCI-H23 stood at 28.3%; in the data set on RXF 393 it was 38.5%; in the data set with K-562, 87.2%; with PC-3, 17.1%; in the data set with HCC-2998, 16.8%; with NCI-H322M, 18.1%. In addition, the inhibition at 10 µM in the data set with LOX IMVI turned out to be 75.9%; with SF-295, 12.6%; in the data set on HOP-62, 24.3%; with SK-MEL-28, 13.3%.
Turning to `CC(=O)Nc1ccc(/C=C/C(=O)c2cccc(NCc3ccc4oc(=O)ccc4c3)c2)cc1` [Compound 5k, (E)-N-(4–(3-oxo-3–(3-(((2-oxo-2H-chromen-6-yl)methyl)amino)phenyl)prop-1-en-1-yl)phenyl)acetamide], the inhibition at 10 µM is 84.2% in the data set on MOLT-4; 36.3% with NCI-H522; 19% with SF-539; 64.5% in the data set with EKVX; 3.88% with SK-OV-3; 45.1% in the data set on UACC-257. Further, the inhibition at 10 µM worked out at 38.6% in the data set with NCI-H23; 35.7% in the data set on SK-MEL-2; 18% with RXF 393; 93.3% with K-562; 27.6% with PC-3; 10% in the data set with HCC-2998. In addition, the inhibition at 10 µM was 15.3% with NCI-H322M; 57.8% in the data set with LOX IMVI; 36.8% in the data set with SF-295; 10.8% in the data set on HOP-62; 21.2% in the data set with SK-MEL-28.
For `O=C(/C=C/c1c[nH]cn1)c1cccc(NCc2ccc(CO)cc2)c1` [Compound 5m, (E)-1–(3-((4-(hydroxymethyl)benzyl)amino)phenyl)-3-(1H-imidazol-4-yl)prop-2-en-1-one], the inhibition at 10 µM with MOLT-4 was 28.5%; with NCI-H522 it was 89.4%; with SF-539 it was 11%; in the data set on EKVX, 32.2%; in the data set on SK-OV-3, -2.54%; with UACC-257, 22.5%. Also, the inhibition at 10 µM was 18.6% in the data set on NCI-H23; 38.3% with RXF 393; 80.4% in the data set with K-562; 11.3% with PC-3; -0.68% in the data set on HCC-2998; 13% in the data set with NCI-H322M. Further, the inhibition at 10 µM in the data set on LOX IMVI amounted to 58.6%; with SF-295, 4.92%; with HOP-62, 13.9%; with SK-MEL-28, 6.66%.

The values above are taken from article PMC11003488 (Journal of Enzyme Inhibition and Medicinal Chemistry, 2023).
